Results published in the NIST ThermoML archive (doi:10.1021/acs.jced.8b00591).
± gives the expanded uncertainty stated by the source.

What was measured:
[1] = 101.3 kPa, Liquid; for viscosity: Falling or rolling sphere viscometry; for mass density: Vibrating tube method
[2] = xn = mol fraction of the nth substance listed; details: 101.3 kPa, Liquid, x2 = 0; for viscosity: Falling or rolling sphere viscometry; for mass density: Vibrating tube method

Row | Structure (SMILES) | viscosity ([1]; 288.15 K) | mass density ([1]; 288.15 K) | viscosity ([1]; 293.15 K) | mass density ([1]; 293.15 K) | viscosity ([1]; 298.15 K) | mass density ([1]; 298.15 K) | viscosity ([1]; 303.15 K) | mass density ([1]; 303.15 K) | viscosity ([1]; 308.15 K) | mass density ([1]; 308.15 K) | viscosity ([1]; 313.15 K) | mass density ([1]; 313.15 K) | viscosity ([1]; 318.15 K) | mass density ([1]; 318.15 K) | viscosity ([1]; 323.15 K) | mass density ([1]; 323.15 K) | viscosity ([1]; 328.15 K) | mass density ([1]; 328.15 K) | viscosity ([2]; 288.15 K) | mass density ([2]; 288.15 K) | further results
1 | CCCC[n+]1ccn(C)c1.O=S(=O)([N-]S(=O)(=O)C(F)(F)F)C(F)(F)F | 78.02 ± 2 mPa·s | 1445.66 ± 3.5 kg/m3 | 61.32 ± 1.4 mPa·s | 1440.84 ± 3.5 kg/m3 | 48.93 ± 1.1 mPa·s | 1436.01 ± 3.5 kg/m3 | 39.84 ± 0.88 mPa·s | 1431.21 ± 3.5 kg/m3 | 32.91 ± 0.73 mPa·s | 1426.43 ± 3.5 kg/m3 | 27.56 ± 0.61 mPa·s | 1421.66 ± 3.5 kg/m3 | 23.33 ± 0.51 mPa·s | 1416.91 ± 3.4 kg/m3 | 19.97 ± 0.44 mPa·s | 1412.17 ± 3.4 kg/m3 | 17.41 ± 0.38 mPa·s | 1407.45 ± 3.4 kg/m3 | – | – | –
2 | CCOC(=O)OCC [diethyl carbonate] + CCn1cc[n+](C)c1.O=S(=O)([N-]S(=O)(=O)C(F)(F)F)C(F)(F)F | – | – | – | – | – | – | – | – | – | – | – | – | – | – | – | – | – | – | 0.871 ± 0.019 mPa·s | 980.49 ± 2.4 kg/m3 | viscosity ([2]; 293.15 K): 0.812 ± 0.018 mPa·s; mass density ([2]; 293.15 K): 974.91 ± 2.4 kg/m3; viscosity ([2]; 298.15 K): 0.757 ± 0.017 mPa·s; mass density ([2]; 298.15 K): 969.3 ± 2.3 kg/m3; viscosity ([2]; 303.15 K): 0.708 ± 0.015 mPa·s; mass density ([2]; 303.15 K): 963.66 ± 2.3 kg/m3; viscosity ([2]; 308.15 K): 0.664 ± 0.015 mPa·s; mass density ([2]; 308.15 K): 958 ± 2.3 kg/m3; viscosity ([2]; 313.15 K): 0.625 ± 0.014 mPa·s; mass density ([2]; 313.15 K): 952.32 ± 2.3 kg/m3; viscosity ([2]; 318.15 K): 0.589 ± 0.013 mPa·s; mass density ([2]; 318.15 K): 946.6 ± 2.3 kg/m3; viscosity ([2]; 323.15 K): 0.556 ± 0.012 mPa·s; mass density ([2]; 323.15 K): 940.86 ± 2.3 kg/m3; viscosity ([2]; 328.15 K): 0.525 ± 0.011 mPa·s; mass density ([2]; 328.15 K): 935.08 ± 2.3 kg/m3
3 | CCn1cc[n+](C)c1.O=S(=O)([N-]S(=O)(=O)C(F)(F)F)C(F)(F)F | 49.41 ± 1.1 mPa·s | 1528.55 ± 3.7 kg/m3 | 40.36 ± 0.89 mPa·s | 1523.47 ± 3.7 kg/m3 | 33.52 ± 0.74 mPa·s | 1518.39 ± 3.7 kg/m3 | 28.35 ± 0.62 mPa·s | 1513.34 ± 3.7 kg/m3 | 24.15 ± 0.53 mPa·s | 1508.3 ± 3.7 kg/m3 | 20.76 ± 0.46 mPa·s | 1503.28 ± 3.7 kg/m3 | 17.9 ± 0.39 mPa·s | 1498.27 ± 3.6 kg/m3 | 15.93 ± 0.35 mPa·s | 1493.28 ± 3.6 kg/m3 | 14.26 ± 0.31 mPa·s | 1488.31 ± 3.6 kg/m3 | – | – | –
4 | CCOC(=O)OCC [diethyl carbonate] + CCCC[n+]1ccn(C)c1.O=S(=O)([N-]S(=O)(=O)C(F)(F)F)C(F)(F)F | – | – | – | – | – | – | – | – | – | – | – | – | – | – | – | – | – | – | 0.871 ± 0.019 mPa·s | 980.49 ± 2.4 kg/m3 | viscosity ([2]; 293.15 K): 0.812 ± 0.018 mPa·s; mass density ([2]; 293.15 K): 974.91 ± 2.4 kg/m3; viscosity ([2]; 298.15 K): 0.757 ± 0.017 mPa·s; mass density ([2]; 298.15 K): 969.3 ± 2.3 kg/m3; viscosity ([2]; 303.15 K): 0.708 ± 0.015 mPa·s; mass density ([2]; 303.15 K): 963.66 ± 2.3 kg/m3; viscosity ([2]; 308.15 K): 0.664 ± 0.015 mPa·s; mass density ([2]; 308.15 K): 958 ± 2.3 kg/m3; viscosity ([2]; 313.15 K): 0.625 ± 0.014 mPa·s; mass density ([2]; 313.15 K): 952.32 ± 2.3 kg/m3; viscosity ([2]; 318.15 K): 0.589 ± 0.013 mPa·s; mass density ([2]; 318.15 K): 946.6 ± 2.3 kg/m3; viscosity ([2]; 323.15 K): 0.556 ± 0.012 mPa·s; mass density ([2]; 323.15 K): 940.86 ± 2.3 kg/m3; viscosity ([2]; 328.15 K): 0.525 ± 0.011 mPa·s; mass density ([2]; 328.15 K): 935.08 ± 2.3 kg/m3
5 | COC(=O)OC [dimethyl carbonate] + CCCC[n+]1ccn(C)c1.O=S(=O)([N-]S(=O)(=O)C(F)(F)F)C(F)(F)F | – | – | – | – | – | – | – | – | – | – | – | – | – | – | – | – | – | – | 0.669 ± 0.015 mPa·s | 1076.39 ± 2.6 kg/m3 | viscosity ([2]; 293.15 K): 0.626 ± 0.014 mPa·s; mass density ([2]; 293.15 K): 1069.86 ± 2.6 kg/m3; viscosity ([2]; 298.15 K): 0.587 ± 0.013 mPa·s; mass density ([2]; 298.15 K): 1063.27 ± 2.6 kg/m3; viscosity ([2]; 303.15 K): 0.552 ± 0.012 mPa·s; mass density ([2]; 303.15 K): 1056.65 ± 2.5 kg/m3; viscosity ([2]; 308.15 K): 0.52 ± 0.011 mPa·s; mass density ([2]; 308.15 K): 1050 ± 2.5 kg/m3; viscosity ([2]; 313.15 K): 0.498 ± 0.011 mPa·s; mass density ([2]; 313.15 K): 1043.29 ± 2.5 kg/m3; viscosity ([2]; 318.15 K): 0.472 ± 0.01 mPa·s; mass density ([2]; 318.15 K): 1036.57 ± 2.5 kg/m3; viscosity ([2]; 323.15 K): 0.45 ± 0.01 mPa·s; mass density ([2]; 323.15 K): 1029.83 ± 2.5 kg/m3; viscosity ([2]; 328.15 K): 0.429 ± 0.009 mPa·s; mass density ([2]; 328.15 K): 1023.03 ± 2.5 kg/m3
6 | COC(=O)OC [dimethyl carbonate] + CCn1cc[n+](C)c1.O=S(=O)([N-]S(=O)(=O)C(F)(F)F)C(F)(F)F | – | – | – | – | – | – | – | – | – | – | – | – | – | – | – | – | – | – | 0.669 ± 0.015 mPa·s | 1076.39 ± 2.6 kg/m3 | viscosity ([2]; 293.15 K): 0.626 ± 0.014 mPa·s; mass density ([2]; 293.15 K): 1069.86 ± 2.6 kg/m3; viscosity ([2]; 298.15 K): 0.587 ± 0.013 mPa·s; mass density ([2]; 298.15 K): 1063.27 ± 2.6 kg/m3; viscosity ([2]; 303.15 K): 0.552 ± 0.012 mPa·s; mass density ([2]; 303.15 K): 1056.65 ± 2.5 kg/m3; viscosity ([2]; 308.15 K): 0.52 ± 0.011 mPa·s; mass density ([2]; 308.15 K): 1050 ± 2.5 kg/m3; viscosity ([2]; 313.15 K): 0.498 ± 0.011 mPa·s; mass density ([2]; 313.15 K): 1043.29 ± 2.5 kg/m3; viscosity ([2]; 318.15 K): 0.472 ± 0.01 mPa·s; mass density ([2]; 318.15 K): 1036.57 ± 2.5 kg/m3; viscosity ([2]; 323.15 K): 0.45 ± 0.01 mPa·s; mass density ([2]; 323.15 K): 1029.83 ± 2.5 kg/m3; viscosity ([2]; 328.15 K): 0.429 ± 0.009 mPa·s; mass density ([2]; 328.15 K): 1023.03 ± 2.5 kg/m3
7 | COC(=O)OC [dimethyl carbonate] | 0.669 ± 0.015 mPa·s | 1076.39 ± 2.6 kg/m3 | 0.626 ± 0.014 mPa·s | 1069.86 ± 2.6 kg/m3 | 0.587 ± 0.013 mPa·s | 1063.27 ± 2.6 kg/m3 | 0.552 ± 0.012 mPa·s | 1056.65 ± 2.5 kg/m3 | 0.52 ± 0.011 mPa·s | 1050 ± 2.5 kg/m3 | 0.498 ± 0.011 mPa·s | 1043.29 ± 2.5 kg/m3 | 0.472 ± 0.01 mPa·s | 1036.57 ± 2.5 kg/m3 | 0.45 ± 0.01 mPa·s | 1029.83 ± 2.5 kg/m3 | 0.429 ± 0.009 mPa·s | 1023.03 ± 2.5 kg/m3 | – | – | –
8 | CCOC(=O)OCC [diethyl carbonate] | 0.871 ± 0.019 mPa·s | 980.49 ± 2.4 kg/m3 | 0.812 ± 0.018 mPa·s | 974.91 ± 2.4 kg/m3 | 0.757 ± 0.017 mPa·s | 969.3 ± 2.3 kg/m3 | 0.708 ± 0.015 mPa·s | 963.66 ± 2.3 kg/m3 | 0.664 ± 0.015 mPa·s | 958 ± 2.3 kg/m3 | 0.625 ± 0.014 mPa·s | 952.32 ± 2.3 kg/m3 | 0.589 ± 0.013 mPa·s | 946.6 ± 2.3 kg/m3 | 0.556 ± 0.012 mPa·s | 940.86 ± 2.3 kg/m3 | 0.525 ± 0.011 mPa·s | 935.08 ± 2.3 kg/m3 | – | – | –
